Compound: C=C(c1ccc(C(=O)O)cc1)c1cc2c(cc1C)C(C)(C)CCC2(C)C [Bexarotene] + CC(C)C[C@H](NC(=O)[C@H](Cc1ccccc1)NC(=O)c1cnccn1)B(O)O [Bortezomib] (partner 0.002 µM)
Assay: relative viability (nuclei count vs DMSO), 5 days (fraction); higher = more cells survive
Summary of the method: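 Relative viability was taken as the ratio of nuclei in treated wells to nuclei in vehicle wells. Lung cancer cell lines in 1536-well plates received compounds by pin tool one day after seeding, either one drug alone or a fixed anchor-drug dose plus five library-drug doses (not always all listed) in √10 steps. Nuclei were counted on 4× images after 5 days of treatment, and values are medians of duplicate plates.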

| Cell Line | relative viability (first compound 0.08 µM) | relative viability (first compound 0.253 µM) | relative viability (first compound 0.8 µM) | relative viability (first compound 2.53 µM) | relative viability (first compound 8 µM) |
| --- | --- | --- | --- | --- | --- |
| H3255 | 0.733 | 0.919 | 0.784 | 0.65 | 0.856 |
| EPLC-272H | 0.968 | 0.875 | 0.538 | 0.776 | 0.822 |
| PC-3 [JPC-3] | 0.9 | 0.843 | 0.68 | 0.858 | 0.771 |
| EKVX | 0.999 | 1.28 | 1.07 | 1.1 | 1.09 |
| ChaGo-K-1 | 1.04 | 1.03 | 1.05 |  | 1.06 |
| NCI-H23 | 1.1 | 1.03 | 1.02 | 0.9 | 0.962 |
| EMC-BAC-2 | 1.24 | 1.03 | 0.97 | 1.05 | 1.03 |
| LOU-NH91 | 0.544 | 0.458 | 0.488 | 0.458 | 0.439 |
| LU99A | 1.36 | 1.26 | 1.12 | 1.23 | 1.21 |
| NCI-H460 | 1.16 | 1.09 | 0.961 | 1.14 | 1.04 |
| 201T | 1.08 | 1.1 | 1.07 | 1.08 | 1.05 |
| NCI-H2405 | 1.07 | 0.945 | 0.836 | 0.896 | 0.92 |
| NCI-H1703 | 0.254 | 0.253 | 0.258 | 0.227 | 0.27 |
| NCI-H1755 | 1.02 | 1.03 | 1.02 | 1 | 0.957 |
| NCI-H2087 | 0.877 | 0.972 | 0.979 | 0.753 | 0.725 |
| NCI-H2228 | 1.08 | 1.3 | 1.05 | 1.11 | 0.841 |
| NCI-H727 | 1.21 | 0.735 | 0.899 | 0.822 | 0.955 |
| NCI-H650 | 0.898 | 1.08 | 0.847 | 0.624 | 0.726 |
| NCI-H520 | 0.805 | 0.588 | 0.518 | 0.385 | 0.534 |
| EBC-1 | 0.63 | 0.541 | 0.415 | 0.555 | 0.442 |
| NCI-H661 | 0.807 | 0.807 | 0.803 | 0.81 | 0.761 |
| NCI-H1299 | 1.07 | 1.1 | 1.04 | 1.02 | 1.06 |
| NCI-H1993 | 1.01 | 0.991 | 0.984 | 0.978 | 1.1 |

| Cell Line | relative viability (first compound 0.08 µM) | relative viability (first compound 0.253 µM) | relative viability (first compound 0.8 µM) | relative viability (first compound 2.53 µM) | relative viability (first compound 8 µM) |
| --- | --- | --- | --- | --- | --- |
| NCI-H838 | 0.995 | 1.16 | 0.803 | 0.777 | 0.949 |
| NCI-H1437 | 0.528 | 0.621 | 0.611 | 0.546 | 0.49 |
| LCLC-103H | 1.07 | 1.03 | 0.863 | 1.11 | 1.23 |
| NCI-H441 | 0.472 | 0.633 | 0.592 |  | 0.619 |
| SK-LU-1 | 1.23 | 1.6 | 0.88 | 1.32 | 1.05 |
| BEN | 0.905 | 0.599 | 0.672 | 0.496 | 0.649 |
| LC-2-ad | 0.936 | 1.16 | 1.09 | 0.936 | 0.985 |
| COR-L23 | 1.06 | 0.989 | 0.898 | 0.933 | 0.892 |
| NCI-H1650 | 0.218 | 0.21 | 0.178 | 0.204 | 0.227 |
| RERF-LC-KJ | 1.17 | 1.12 | 1.03 | 1.06 | 1.17 |
| NCI-H1915 | 1 | 0.989 | 0.896 | 0.993 | 0.911 |
| NCI-H596 | 1.01 | 0.986 | 0.836 | 0.795 | 0.85 |
| IA-LM | 0.683 | 0.697 | 0.596 | 0.662 | 0.518 |
| NCI-H2009 | 1.16 | 1.27 | 1.13 | 1.08 | 1 |
| NCI-H2126 | 1.13 | 1.17 | 1.08 | 1.12 | 1.11 |
| LXF-289 | 1.15 | 1.08 | 1.14 | 1.09 | 1.16 |
| NCI-H1563 | 0.9 | 0.814 | 0.741 | 0.83 | 0.98 |
| HCC-44 | 0.997 | 1 | 0.851 | 0.823 | 0.822 |
| PC-14 | 0.926 | 0.885 | 0.856 | 0.825 | 0.719 |
| HOP-62 | 0.611 | 1.05 | 0.916 | 0.645 | 0.81 |
| NCI-H1666 | 0.742 | 0.701 | 0.727 | 0.719 | 0.75 |
| NCI-H1355 | 1.17 | 1.35 | 1.21 | 1.32 | 1.14 |
| HCC-827 | 0.994 | 1.11 | 0.992 | 0.989 | 1 |

| Cell Line | relative viability (first compound 0.08 µM) | relative viability (first compound 0.253 µM) | relative viability (first compound 0.8 µM) | relative viability (first compound 2.53 µM) | relative viability (first compound 8 µM) |
| --- | --- | --- | --- | --- | --- |
| HARA | 1.16 | 1.04 | 1.02 | 1.02 | 1.03 |
| HCC-366 | 1.07 | 0.979 | 1.02 | 1.08 | 1.06 |
| NCI-H322M | 1.3 | 1.4 | 1.26 | 1.17 | 1.32 |
| NCI-H2347 | 1.2 | 0.904 | 0.818 | 0.664 | 0.835 |
| NCI-H1975 | 0.414 | 0.376 | 0.452 | 0.428 | 0.346 |
| UMC-11 | 0.877 | 0.796 | 0.8 | 1.03 | 0.637 |
| ABC-1 | 0.3 | 0.311 | 0.269 | 0.291 | 0.336 |
| A-427 | 0.933 | 0.923 | 0.79 | 0.897 | 0.932 |
| LCLC-97TM1 | 0.58 | 0.625 | 0.468 | 0.126 | 0.575 |
| HCC-15 | 1.06 | 1.13 | 1.05 | 0.959 | 1.01 |
| NCI-H647 | 0.943 | 1.05 | 0.89 | 1.1 | 1.02 |
| SW 1573 | 0.896 | 0.923 | 0.955 | 0.803 | 0.763 |
| NCI-H1651 | 1.14 | 0.843 | 0.965 | 0.944 | 1.04 |
| NCI-H1792 | 0.871 | 0.981 | 0.809 | 0.761 | 0.681 |
| NCI-H2023 | 1.08 | 1.01 | 1.07 | 0.846 | 0.786 |
| COR-L 105 | 0.98 | 0.98 | 0.988 | 0.965 | 0.909 |
| NCI-H1734 | 0.896 | 0.98 | 0.936 | 0.87 | 0.818 |
| NCI-H3122 | 1.09 | 1.05 | 1.09 | 1.15 | 1.13 |
| CAL-12T | 1.02 |  | 0.849 |  | 0.816 |
| HCC-78 | 0.442 | 0.453 | 0.491 | 0.524 | 0.5 |
| NCI-H2085 | 1.04 | 0.918 | 0.929 | 0.946 | 0.939 |
